Measurements taken from patent publication US6727076B2 (priority 1995, dated 2004).

Legend:
[1] = system: E. coli strain 14443 (MG1655 (FB426)); assay type: cell-based; also: key: '+' indicates that the organism tested was capable of utilizing the carbon source listed; '−' indicates that the organism tested was not capable of utilizing the carbon source listed; 'w' indicates weak positive reactions
[2] = system: E. coli strain 14444 (MG1655 xylA); assay type: cell-based
[3] = system: E. coli strain 14445 (MG1655 himA); assay type: cell-based
[4] = system: E. coli strain 6320 (W3110); assay type: cell-based; also: key: '+' indicates that the organism tested was capable of utilizing the carbon source listed; '−' indicates that the organism tested was not capable of utilizing the carbon source listed; 'w' indicates weak positive reactions
[5] = system: E. coli strain 6321 (MG1655); assay type: cell-based; also: key: '+' indicates that the organism tested was capable of utilizing the carbon source listed; '−' indicates that the organism tested was not capable of utilizing the carbon source listed; 'w' indicates weak positive reactions
[6] = system: E. coli strain 6322 (EMG2 (K12, λF+)); assay type: cell-based; also: key: '+' indicates that the organism tested was capable of utilizing the carbon source listed; '−' indicates that the organism tested was not capable of utilizing the carbon source listed; 'w' indicates weak positive reactions
[7] = system: E. coli strain 11547 (O157:H7); assay type: cell-based
[8] = system: E. coli strain 13671 (O157:H? gur+); assay type: cell-based
[9] = system: E. coli strain 13673 (O157); assay type: cell-based
[10] = system: E. coli strain 13675 (O157); assay type: cell-based
S. typhimurium pyrCΔ73 = assay type: cell-based, Salmonella typhimurium
[11] = system: E. coli 287 (ATCC #11775); assay type: cell-based
T. harzianum DAOM 190830 = assay type: cell-based, Trichoderma harzianum
E. coli MG1655 [12] = assay type: cell-based
E. coli MG1655 [13] = assay type: cell-based; remark: listed apart in the source

Molecule | carbon source utilization [1] | carbon source utilization [2] | carbon source utilization [3] | carbon source utilization [4] | carbon source utilization [5] | growth stimulation by supplement (well color) (S. typhimurium pyrCΔ73) | suitability as phosphorus source (growth, purple color) (E. coli MG1655 [13]) | further results
O=C(O)CC(O)C(=O)O (racemic) [D,L-malic acid] | + | + | + | + | + |  |  | carbon source utilization [6]: +; carbon source utilization [7]: +; carbon source utilization [8]: +; carbon source utilization [9]: +; carbon source utilization [10]: +
CC(O)CO (stereo not drawn) [1,2-propanediol] | − | − | − | − | − |  |  | carbon source utilization [6]: −; carbon source utilization [7]: −; carbon source utilization [8]: −; carbon source utilization [9]: −; carbon source utilization [10]: −
Nc1ccn([C@H]2C[C@H](O)[C@@H](CO)O2)c(=O)n1 [2-deoxycytidine] |  |  |  |  |  | turned purple |  | 
O=c1ccn([C@H]2C[C@H](O)[C@@H](CO)O2)c(=O)[nH]1 [2-deoxyuridine] |  |  |  |  |  | turned purple |  | 
Nc1ncnc2c1ncn2[C@H]1C[C@H](O)[C@@H](CO)O1 [2′-deoxy-adenosine] |  |  |  |  |  | turned weakly purple |  | 
Nc1nc2c(ncn2[C@H]2C[C@H](O)[C@@H](CO)O2)c(=O)[nH]1 [2′deoxyguanosine] |  |  |  |  |  | turned weakly purple |  | 
O=C(O)C[C@@H](O)C(=O)O [D-malic acid] | + | + | + | + | + |  |  | carbon source utilization [6]: +; carbon source utilization [7]: +; carbon source utilization [8]: +; carbon source utilization [9]: +
OC[C@@H](O)[C@@H](O)[C@H](O)[C@@H](O)CO [D-sorbitol] |  |  |  |  |  |  |  | carbon source utilization, in words [7]: negative; carbon source utilization, in words [8]: negative; carbon source utilization, in words [9]: negative; carbon source utilization, in words [10]: negative; carbon source utilization result [11]: positive; carbon source utilization result (T. harzianum DAOM 190830): positive
OC[C@@H](O)[C@H](O)[C@H](O)[C@@H](O)CO [Dulcitol] | − | − | − | − | + |  |  | carbon source utilization [6]: −; carbon source utilization [7]: +; carbon source utilization [8]: +; carbon source utilization [9]: −; carbon source utilization [10]: +
OC[C@H]1O[C@@H](n2cnc3c(O)ncnc32)[C@H](O)[C@@H]1O [Inosine] |  |  |  |  |  | turned weakly purple |  | carbon source utilization result [11]: positive; carbon source utilization result (T. harzianum DAOM 190830): positive; suitability as nitrogen source (growth, purple color) (E. coli MG1655 [12]): not suitable
O=C1O[C@H]([C@@H](O)CO)[C@@H](O)[C@@H]1O [L-galactonic acid γ-lactone] | + | + | + | + | + |  |  | carbon source utilization [6]: +; carbon source utilization [7]: +; carbon source utilization [8]: +; carbon source utilization [9]: +; carbon source utilization [10]: +
C[C@H](O)C(=O)O [L-lactic acid] | + | + | + | + | + |  |  | carbon source utilization [6]: +; carbon source utilization [7]: +; carbon source utilization [8]: +; carbon source utilization [9]: +; carbon source utilization [10]: +
O=C(O)C[C@H](O)C(=O)O [L-malic acid] | + | + | + | + | + |  |  | carbon source utilization [6]: +; carbon source utilization [7]: +; carbon source utilization [8]: +; carbon source utilization [9]: +; carbon source utilization [10]: +
O=c1ccn([C@@H]2O[C@H](CO)[C@@H](O)[C@H]2O)c(=O)[nH]1 [Uridine] |  |  |  |  |  | turned purple |  | carbon source utilization result [11]: positive; suitability as nitrogen source (growth, purple color) (E. coli MG1655 [12]): not suitable
Nc1ncnc2c1ncn2[C@@H]1O[C@H](CO)[C@@H](OP(=O)(O)O)[C@H]1O [adenosine 3-monophosphate, adenosine 3′-monophosphate] |  |  |  |  |  | turned weakly purple | positive | 
Nc1ncnc2c1ncn2[C@@H]1O[C@H](COP(=O)(O)O)[C@@H](O)[C@H]1O [adenosine 5′-monophosphate] |  |  |  |  |  | turned weakly purple | not suitable | 

Molecule | carbon source utilization [1] | carbon source utilization [2] | carbon source utilization [3] | carbon source utilization [4] | carbon source utilization [5] | growth stimulation by supplement (well color) (S. typhimurium pyrCΔ73) | suitability as phosphorus source (growth, purple color) (E. coli MG1655 [13]) | further results
Nc1ncnc2c1ncn2[C@@H]1O[C@H](CO)[C@@H](O)[C@H]1OP(=O)(O)O [adenosine-2′-monophosphate] |  |  |  |  |  | turned weakly purple | positive | 
Nc1ccn([C@@H]2O[C@H](CO)[C@@H](O)[C@H]2OP(=O)(O)O)c(=O)n1 [cytidine 2′-monophosphate] |  |  |  |  |  | turned purple | not suitable | 
Nc1ccn([C@@H]2O[C@H](CO)[C@@H](OP(=O)(O)O)[C@H]2O)c(=O)n1 [cytidine 3′-monophosphate] |  |  |  |  |  | turned purple | positive | 
Nc1ccn([C@@H]2O[C@H](COP(=O)(O)O)[C@@H](O)[C@H]2O)c(=O)n1 [cytidine 5′-monophosphate] |  |  |  |  |  | turned purple | positive | 
Nc1ccn([C@@H]2O[C@H](CO)[C@@H](O)[C@H]2O)c(=O)n1 [cytidine] |  |  |  |  |  | turned purple |  | 
Nc1cc[nH]c(=O)n1 [cytosine] |  |  |  |  |  | turned purple |  | suitability as nitrogen source (growth, purple color) (E. coli MG1655 [12]): not suitable
Nc1nc2nc[nH]c2c(=O)[nH]1 [guanine] |  |  |  |  |  | turned weakly purple |  | 
Nc1nc2c(ncn2[C@@H]2O[C@H](CO)[C@@H](O)[C@H]2OP(=O)(O)O)c(=O)[nH]1 [guanosine 2′-monophosphate] |  |  |  |  |  | turned weakly purple | positive | 
Nc1nc2c(ncn2[C@@H]2O[C@H](COP(=O)(O)O)[C@@H](O)[C@H]2O)c(=O)[nH]1 [guanosine 5′-monophosphate] |  |  |  |  |  | turned weakly purple | positive | 
O=c1cc[nH]c(=O)[nH]1 [uracil] |  |  |  |  |  | turned purple |  | suitability as nitrogen source (growth, purple color) (E. coli MG1655 [12]): not suitable
O=c1ccn([C@@H]2O[C@H](CO)[C@@H](OP(=O)(O)O)[C@H]2O)c(=O)[nH]1 [uridine 3′-monophosphate] |  |  |  |  |  | turned purple | positive | 
O=c1ccn([C@@H]2O[C@H](COP(=O)(O)O)[C@@H](O)[C@H]2O)c(=O)[nH]1 [uridine 5′-monophosphate] |  |  |  |  |  | turned purple | positive | 
CO[C@H]1O[C@H](CO)[C@H](O)[C@H](O)[C@H]1O [α-methyl galactoside] | + | + | + | + | + |  |  | carbon source utilization [6]: +; carbon source utilization [7]: +; carbon source utilization [8]: +; carbon source utilization [9]: +; carbon source utilization [10]: +
Maltotriose | + | − | − | + | + |  |  | carbon source utilization, in words [2]: negative; carbon source utilization, in words [3]: negative; carbon source utilization [6]: +; carbon source utilization [7]: +; carbon source utilization [8]: +; carbon source utilization [9]: +; carbon source utilization [10]: +
Tween-20 | − | − | − | − |  |  |  | 
Tween-80 | − | − | − |  | + |  |  | carbon source utilization result [11]: positive; carbon source utilization result (T. harzianum DAOM 190830): positive
